According to patent publication US7834008B2, “Cyclopropyl derivatives as NK3 receptor antagonists” (H. Lundbeck A/S, priority 2003, dated 2010):

biological target: T1, human NK3 receptor (Homo sapiens, UniProt P29371); test: Fluorometric Imaging Plate Reader (FLIPR) calcium assay, antagonist test against NKB; format: cell-based; conditions: BHK cells stably expressing the human NK3 receptor, EC85 of NKB (app. 1 nM)
T1 construct: expressed in transfected cells
T1 sequence (P29371 1-465): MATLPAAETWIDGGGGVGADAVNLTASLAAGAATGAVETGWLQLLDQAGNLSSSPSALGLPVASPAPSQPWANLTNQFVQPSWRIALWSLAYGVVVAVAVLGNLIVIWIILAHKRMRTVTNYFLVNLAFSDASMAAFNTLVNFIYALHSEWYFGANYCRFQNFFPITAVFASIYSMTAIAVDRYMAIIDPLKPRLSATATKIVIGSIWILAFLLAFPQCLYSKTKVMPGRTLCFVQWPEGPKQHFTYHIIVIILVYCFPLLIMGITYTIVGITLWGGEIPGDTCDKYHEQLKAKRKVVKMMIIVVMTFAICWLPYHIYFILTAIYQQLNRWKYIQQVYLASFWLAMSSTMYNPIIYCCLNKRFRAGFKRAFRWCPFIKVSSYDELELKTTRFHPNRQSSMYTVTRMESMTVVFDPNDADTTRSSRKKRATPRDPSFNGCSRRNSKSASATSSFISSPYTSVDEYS
Method: The Fluorometric Imaging Plate Reader (FLIPR) assay: The compounds were analysed for efficacy profile in FLIPR assays similar to assays described in Jerman, J C et al: Eur J Pharmacol. 2001, 414, p 23-30. BHK cells (cf. Example 20) stably expressing the human NK3 receptor were seeded in 100 μl media in black walled clear-base 96-wells plates (Costar) aiming at a confluency of 95-100% at the day of assay. The assay was performed according to the calcium assay kit (Molecular Devices). Briefly, the calcium assay reagent was dissolved in Hanks BSS (HBSS) buffer, pH 7.4 containing 20 mM Hepes and 2.5 mM probinicid. An equal volume (100 μl) of the calcium assay reagent solution was added to the wells and the plates were incubated for 60 min at 37° C. The plates were subsequently placed in the FLIPR for examination of fluorescence.
Compounds were diluted in HBSS buffer containing 20 mM Hepes prior to test. For test of agonist activity 50 μl of compound was added to the wells and the plates were analysed for 3 minutes in the FLIPR. For test of antagonist activity, 25 μl of compound was added to the wells and the plate was analysed for a 5 minute period. Subsequently, the wells were added 25 μl of an EC85 (final concentration) of NKB (app. 1 nM) previously determined from a dose-response curve with NKB. The plates were subsequently read for 3 minutes before termination. As controls, selected wells on all plates were added only 100 nM of the NK3 receptor agonist NKB or 2 μM of the calcium ionophor ionomycin. The maximal increase in fluorescence over background following each ligand addition was determined and analysed.

| Compound | inhibition of the NKB-mediated activation of the NK3 receptor |
| --- | --- |
| CN(Cc1ccc(F)cc1)C(=O)[C@@]1(c2ccccc2)C[C@H]1CN1CCC(C(=O)N2CCCCC2)(c2ccccc2)CC1 [Compound 42a, (1S,2R)-1-Phenyl-2-[4-phenyl-4-(piperidine-1-carbonyl)-piperidin-1-ylmethyl]-cyclopropanecarboxylic acid (4-fluoro-benzyl)-methyl-amide] | inhibited the NKB-mediated activation of the NK3 receptor |
| CC(=O)NC1(c2ccccc2)CCN(C[C@@H]2C[C@@]2(C(=O)N(C)Cc2ccc(F)cc2)c2ccc(Cl)cc2)CC1 [Compound 44a, (1S,2R)-2-(4-Acetylamino-4-phenyl-piperidin-1-ylmethyl)-1-(4-chloro-phenyl)-cyclopropanecarboxylic acid (4-fluoro-benzyl)-methyl-amide] | inhibited the NKB-mediated activation of the NK3 receptor |
| CC(=O)N1CC2(CCN(C[C@@H]3C[C@@]3(C(=O)N(C)Cc3ccc(F)cc3)c3ccccc3)CC2)c2cc(F)ccc21 [Compound 25a] | inhibited the NKB-mediated activation of the NK3 receptor |
| CC(=O)N1CC2(CCN(C[C@@H]3C[C@@]3(C(=O)N(C)Cc3ccc(F)cc3)c3ccccc3)CC2)c2ccccc21 [Compound 23a] | inhibited the NKB-mediated activation of the NK3 receptor |
| CC(=O)N1CC2(CCN(C[C@@H]3C[C@@]3(C(=O)N(C)Cc3ccc(F)cc3)c3ccc(F)cc3)CC2)c2cc(F)ccc21 [Compound 32a] | inhibited the NKB-mediated activation of the NK3 receptor |
| (1S,2R)-1-(3,4-Difluoro-phenyl)-2-[4-phenyl-4-(piperidine-1-carbonyl)-piperidin-1-ylmethyl]-cyclopropanecarboxylic acid-methyl-amide [Compound 33a] | inhibited the NKB-mediated activation of the NK3 receptor |
| CC(=O)NC1(c2ccccc2)CCN(C[C@@H]2C[C@@]2(C(=O)N(C)Cc2ccccc2Cl)c2ccc(Cl)cc2)CC1 [Compound 45a, (1S,2R)-2-(4-Acetylamino-4-phenyl-piperidin-1-ylmethyl)-1-(4-chloro-phenyl)-cyclopropanecarboxylic acid (2-chloro-benzyl)-methyl-amide] | inhibited the NKB-mediated activation of the NK3 receptor |

tested on: not given; test: not given; conditions: in particular positive symptoms; cited from earlier work

| Compound | effect against schizophrenia |
| --- | --- |
| CC(=O)N(C)C1(c2ccccc2)CCN(CCC[C@]2(c3ccc(Cl)c(Cl)c3)CCCN(C(=O)c3ccccc3)C2)CC1 [SR142801] | has effect against schizophrenia |
